Reference: ChEMBL document CHEMBL3733935, “Pyrazolylbenzothiazole derivatives and their use as therapeutic agents” (2013)
Activity calls are given as the source filed them.

Columns and labels:
Format in all cases: functional, cell-based
[1] = organism: Mus musculus; experiment: Cytoprotective activity against PAN-induced toxicity in mouse K5P5 cells assessed as increase in cell size at 2.5 to 25 uM after 48 to 72 hrs by crystal violet staining assay
[2] = organism: Mus musculus; experiment: Cytoprotective activity against PAN-induced toxicity in mouse K5P5 cells assessed as increase in overall cell number at 2.5 to 25 uM after 48 to 72 hrs by crystal violet staining assay
[3] = organism: Mus musculus; experiment: Cytoprotective activity against PAN-induced toxicity in mouse K5P5 cells assessed as increase in cell spreading at 2.5 to 25 uM after 48 to 72 hrs by crystal violet staining assay

Measured: Activity

COc1cc2sc(-c3c(-c4ccco4)n[nH]c3N)nc2cc1F
active: all assays above

Cc1[nH]nc(N)c1-c1nc2cc(F)c(S(=O)(=O)NCCO)cc2s1
active: all assays above

Cc1[nH]nc(N)c1-c1nc2cc(F)c(S(N)(=O)=O)cc2s1
active: all assays above

Cc1[nH]nc(N)c1-c1nc2ccc(CN(C)C)cc2s1
active: all assays above

CNS(=O)(=O)c1ccc2nc(-c3c(N)n[nH]c3C)sc2c1
active: all assays above
